Assay results published in PubChem BioAssay AID2060492 (Molecular Pharmacology Branch, DTP, NCI, 2025).

Tested on: 695427-040-R-J1-PDC complex spheroids, viability percent T/C
Assay: Anticancer human tumor 695427-040-R-J1-PDC patient-derived colon adenocarcinoma cell line growth inhibition [GQUAD]
Settings: for IC50: curve of first compound; for viability, T/C: stronger effect = lower value
In short: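 Tumor cells were grown as complex spheroids with HUVEC endothelial cells and mesenchymal stem cells as stroma. G-quadruplex stabilizers were combined with targeted agents over half-log dilutions from near the clinical Cmax, or from 10 microM.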

[1] = second compound 0.0316 µM, first compound 0.0316 µM
[2] = second compound 0.0316 µM, first compound 0.1 µM
[3] = second compound 0.0316 µM, first compound 0.316 µM
[4] = second compound 0.0316 µM, first compound 1 µM
[5] = second compound 0.0316 µM, first compound 3.16 µM
[6] = second compound 0.0316 µM, first compound 10 µM
[7] = second compound 0.1 µM, first compound 0.0316 µM
[8] = second compound 0.1 µM, first compound 0.1 µM
[9] = second compound 0.1 µM, first compound 0.316 µM
[10] = second compound 0.1 µM, first compound 1 µM
[11] = second compound 0.1 µM, first compound 3.16 µM
[12] = second compound 0.1 µM, first compound 10 µM
[13] = second compound 0.316 µM, first compound 0.0316 µM
[14] = second compound 0.316 µM, first compound 0.1 µM
[15] = second compound 0.316 µM, first compound 0.316 µM
[16] = second compound 0.316 µM, first compound 1 µM
[17] = second compound 0.316 µM, first compound 3.16 µM
[18] = second compound 0.316 µM, first compound 10 µM
[19] = second compound 1 µM, first compound 0.0316 µM
[20] = second compound 1 µM, first compound 0.1 µM
[21] = second compound 1 µM, first compound 0.316 µM
[22] = second compound 1 µM, first compound 1 µM
[23] = second compound 1 µM, first compound 3.16 µM
[24] = second compound 1 µM, first compound 10 µM
[25] = second compound 3.16 µM, first compound 0.0316 µM
[26] = second compound 3.16 µM, first compound 0.1 µM
[27] = second compound 3.16 µM, first compound 0.316 µM
[28] = second compound 3.16 µM, first compound 1 µM
[29] = second compound 3.16 µM, first compound 3.16 µM
[30] = second compound 3.16 µM, first compound 10 µM
[31] = second compound 10 µM, first compound 0.0316 µM
[32] = second compound 10 µM, first compound 0.1 µM
[33] = second compound 10 µM, first compound 0.316 µM
[34] = second compound 10 µM, first compound 1 µM
[35] = second compound 10 µM, first compound 3.16 µM
[36] = second compound 10 µM, first compound 10 µM
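Note: spheroids exposed to compounds for seven days before readout.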

SMILES: C#Cc1c(F)ccc2cc(O)cc(-c3ncc4c(N5CC6CCC(C5)N6)nc(OCC56CCCN5CC(F)C6)nc4c3F)c12 (stereo not drawn) + Cc1[nH]c2ccc(F)cc2c1-c1nc2c3cccnc3c3ncccc3c2[nH]1
- IC50 (second compound 0.0316 µM): 1580 nM
- IC50 (second compound 0.1 µM): 1280 nM
- IC50 (second compound 0.316 µM): 1010 nM
- IC50 (second compound 1 µM): 932 nM
- IC50 (second compound 3.16 µM): 444 nM
- IC50 (second compound 10 µM): 438 nM
- viability, T/C [1]: 105%
- viability, T/C [2]: 95.3%
- viability, T/C [3]: 99.3%
- viability, T/C [4]: 75.5%
- viability, T/C [5]: 10.3%
- viability, T/C [6]: 11.7%
- viability, T/C [7]: 117%
- viability, T/C [8]: 91.6%
- viability, T/C [9]: 93.7%
- viability, T/C [10]: 62.3%
- viability, T/C [11]: 7.36%
- viability, T/C [12]: 8.21%
- viability, T/C [13]: 102%
- viability, T/C [14]: 96.7%
- viability, T/C [15]: 80.4%
- viability, T/C [16]: 55.7%
- viability, T/C [17]: 5.93%
- viability, T/C [18]: 5.99%
- viability, T/C [19]: 86.8%
- viability, T/C [20]: 84.5%
- viability, T/C [21]: 82.5%
- viability, T/C [22]: 48%
- viability, T/C [23]: 3.1%
- viability, T/C [24]: 2.8%
- viability, T/C [25]: 73.6%
- viability, T/C [26]: 73.2%
- viability, T/C [27]: 62.5%
- viability, T/C [28]: 19.9%
- viability, T/C [29]: 1.77%
- viability, T/C [30]: 1.26%
- viability, T/C [31]: 70.8%
- viability, T/C [32]: 60.4%
- viability, T/C [33]: 61.4%
- viability, T/C [34]: 21.9%
- viability, T/C [35]: 1.1%
- viability, T/C [36]: 1.13%

SMILES: O=c1[nH]cc(F)c(=O)[nH]1 + Cc1[nH]c2ccc(F)cc2c1-c1nc2c3cccnc3c3ncccc3c2[nH]1
- IC50 (second compound 0.0316 µM): > 10000 nM
- IC50 (second compound 0.1 µM): > 10000 nM
- IC50 (second compound 0.316 µM): > 10000 nM
- IC50 (second compound 1 µM): > 10000 nM
- IC50 (second compound 3.16 µM): > 10000 nM
- IC50 (second compound 10 µM): > 10000 nM
- viability, T/C [1]: 102%
- viability, T/C [2]: 91.1%
- viability, T/C [3]: 99.1%
- viability, T/C [4]: 92.3%
- viability, T/C [5]: 89%
- viability, T/C [6]: 108%
- viability, T/C [7]: 98.4%
- viability, T/C [8]: 77.3%
- viability, T/C [9]: 92.2%
- viability, T/C [10]: 82.2%
- viability, T/C [11]: 94.8%
- viability, T/C [12]: 98.6%
- viability, T/C [13]: 104%
- viability, T/C [14]: 74.1%
- viability, T/C [15]: 89.1%
- viability, T/C [16]: 62.4%
- viability, T/C [17]: 98.8%
- viability, T/C [18]: 87%
- viability, T/C [19]: 84.5%
- viability, T/C [20]: 91.8%
- viability, T/C [21]: 76.2%
- viability, T/C [22]: 82.3%
- viability, T/C [23]: 88.2%
- viability, T/C [24]: 89.2%
- viability, T/C [25]: 82.1%
- viability, T/C [26]: 81.7%
- viability, T/C [27]: 83.7%
- viability, T/C [28]: 69.8%
- viability, T/C [29]: 74.1%
- viability, T/C [30]: 66.3%
- viability, T/C [31]: 59.8%
- viability, T/C [32]: 73%
- viability, T/C [33]: 75.8%
- viability, T/C [34]: 75.9%
- viability, T/C [35]: 74.1%
- viability, T/C [36]: 78.3%

SMILES: Cn1ncnc1[C@H]1c2n[nH]c(=O)c3cc(F)cc(c23)N[C@@H]1c1ccc(F)cc1 + Cc1cnc(CNC(=O)c2c(=O)c3ccc(N4CCCN(C)CC4)nc3n3c2sc2ccccc23)cn1
- IC50 (second compound 0.0316 µM): > 316 nM
- IC50 (second compound 0.1 µM): > 316 nM
- IC50 (second compound 0.316 µM): > 316 nM
- IC50 (second compound 1 µM): > 316 nM
- IC50 (second compound 3.16 µM): > 316 nM
- IC50 (second compound 10 µM): < 0.999 nM
- viability, T/C (second compound 0.0316 µM, first compound 0.000999 µM): 98.9%
- viability, T/C (second compound 0.0316 µM, first compound 0.00316 µM): 84.2%
- viability, T/C (second compound 0.0316 µM, first compound 0.00999 µM): 96.4%
- viability, T/C [1]: 66.4%
- viability, T/C (second compound 0.0316 µM, first compound 0.0999 µM): 86.2%
- viability, T/C [3]: 71.7%
- viability, T/C (second compound 0.1 µM, first compound 0.000999 µM): 93.5%
- viability, T/C (second compound 0.1 µM, first compound 0.00316 µM): 101%
- viability, T/C (second compound 0.1 µM, first compound 0.00999 µM): 87.5%
- viability, T/C [7]: 62.9%
- viability, T/C (second compound 0.1 µM, first compound 0.0999 µM): 91.8%
- viability, T/C [9]: 60.6%
- viability, T/C (second compound 0.316 µM, first compound 0.000999 µM): 65.7%
- viability, T/C (second compound 0.316 µM, first compound 0.00316 µM): 83.5%
- viability, T/C (second compound 0.316 µM, first compound 0.00999 µM): 88.1%
- viability, T/C [13]: 71.5%
- viability, T/C (second compound 0.316 µM, first compound 0.0999 µM): 66%
- viability, T/C [15]: 66%
- viability, T/C (second compound 1 µM, first compound 0.000999 µM): 53.7%
- viability, T/C (second compound 1 µM, first compound 0.00316 µM): 53.9%
- viability, T/C (second compound 1 µM, first compound 0.00999 µM): 60.7%
- viability, T/C [19]: 55.9%
- viability, T/C (second compound 1 µM, first compound 0.0999 µM): 82.5%
- viability, T/C [21]: 56.5%
- viability, T/C (second compound 3.16 µM, first compound 0.000999 µM): 51.6%
- viability, T/C (second compound 3.16 µM, first compound 0.00316 µM): 48.7%
- viability, T/C (second compound 3.16 µM, first compound 0.00999 µM): 53%
- viability, T/C [25]: 62.1%
- viability, T/C (second compound 3.16 µM, first compound 0.0999 µM): 63.3%
- viability, T/C [27]: 46.5%
- viability, T/C (second compound 10 µM, first compound 0.000999 µM): 37.8%
- viability, T/C (second compound 10 µM, first compound 0.00316 µM): 44.7%
- viability, T/C (second compound 10 µM, first compound 0.00999 µM): 58.2%
- viability, T/C [31]: 47.7%
- viability, T/C (second compound 10 µM, first compound 0.0999 µM): 58.5%
- viability, T/C [33]: 40.1%

SMILES: C#Cc1c(F)ccc2cc(O)cc(-c3ncc4c(N5CC6CCC(C5)N6)nc(OCC56CCCN5CC(F)C6)nc4c3F)c12 (stereo not drawn) + Cc1cnc(CNC(=O)c2c(=O)c3ccc(N4CCCN(C)CC4)nc3n3c2sc2ccccc23)cn1
- IC50 (second compound 0.0316 µM): > 10000 nM
- IC50 (second compound 0.1 µM): > 10000 nM
- IC50 (second compound 0.316 µM): > 10000 nM
- IC50 (second compound 1 µM): > 10000 nM
- IC50 (second compound 3.16 µM): < 31.6 nM
- IC50 (second compound 10 µM): < 31.6 nM
- viability, T/C [1]: 103%
- viability, T/C [2]: 94.4%
- viability, T/C [3]: 87.1%
- viability, T/C [4]: 73.2%
- viability, T/C [5]: 76.9%
- viability, T/C [6]: 65.4%
- viability, T/C [7]: 110%
- viability, T/C [8]: 69.8%
- viability, T/C [9]: 85%
- viability, T/C [10]: 71.5%
- viability, T/C [11]: 71.4%
- viability, T/C [12]: 58.7%
- viability, T/C [13]: 82.5%
- viability, T/C [14]: 78.9%
- viability, T/C [15]: 51.1%
- viability, T/C [16]: 65.7%
- viability, T/C [17]: 63.2%
- viability, T/C [18]: 52.2%
- viability, T/C [19]: 79.8%
- viability, T/C [20]: 52.5%
- viability, T/C [21]: 61.8%
- viability, T/C [22]: 60.4%
- viability, T/C [23]: 65%
- viability, T/C [24]: 46.6%
- viability, T/C [25]: 37.6%
- viability, T/C [26]: 51.7%
- viability, T/C [27]: 47.2%
- viability, T/C [28]: 33.4%
- viability, T/C [29]: 47%
- viability, T/C [30]: 30.4%
- viability, T/C [31]: 22.1%
- viability, T/C [32]: 29.2%
- viability, T/C [33]: 41.9%
- viability, T/C [34]: 31.3%
- viability, T/C [35]: 29.9%
- viability, T/C [36]: 0.83%
